Measured values taken from the NIST ThermoML archive (doi:10.1016/j.jct.2015.09.036).
± gives the expanded uncertainty stated by the source.

Columns and labels:
[1] = 303.15 K, 100 kPa, Liquid; for viscosity: Capillary tube (Ostwald / Ubbelohde) method; for speed of sound: Frequency=2 MHz, Linear variable-path acoustic interferometer; for mass density: Pycnometric method
[2] = xn = mol fraction of the nth substance listed; details: 303.15 K, 100 kPa, Liquid; for viscosity: Capillary tube (Ostwald / Ubbelohde) method; for speed of sound: Frequency=2 MHz, Linear variable-path acoustic interferometer; for mass density: Pycnometric method

CCCCC(CC)COP(=O)(O)OCC(CC)CCCC (configuration not stated) [bis(2-ethylhexyl) hydrogen phosphate]
[1]
Details | mass density [kg/m3] | speed of sound [m/s] | viscosity [mPa·s]
– | 961.3 ± 4.1 | 1293 ± 2.8 | 19.29 ± 0.83

CCCCC(CC)COP(=O)(O)OCC(CC)CCCC (configuration not stated) [bis(2-ethylhexyl) hydrogen phosphate] + Cc1ccccc1
[2]
Details | mass density [kg/m3] | speed of sound [m/s] | viscosity [mPa·s]
x1 = 0.0896 | 884.9 ± 4 | 1283.7 ± 2.2 | 0.722 ± 0.03
x1 = 0.1624 | 902.1 ± 4 | 1284.5 ± 2.2 | 0.907 ± 0.037
x1 = 0.2077 | 910.5 ± 4 | 1285.1 ± 2.2 | 1.086 ± 0.045
x1 = 0.2898 | 923.1 ± 4 | 1286 ± 2.3 | 1.576 ± 0.065
x1 = 0.3279 | 928.8 ± 4 | 1286.6 ± 2.3 | 1.914 ± 0.079
x1 = 0.4205 | 937.6 ± 4 | 1287.4 ± 2.4 | 3.098 ± 0.13
x1 = 0.5082 | 944.5 ± 4.1 | 1288.2 ± 2.4 | 4.679 ± 0.19
x1 = 0.5903 | 949.3 ± 4.1 | 1289 ± 2.5 | 6.432 ± 0.27
x1 = 0.6814 | 953.3 ± 4.1 | 1289.9 ± 2.5 | 8.931 ± 0.38
x1 = 0.7388 | 955.2 ± 4.1 | 1290.5 ± 2.6 | 10.84 ± 0.46
x1 = 0.8105 | 957.1 ± 4.1 | 1291.2 ± 2.6 | 13.17 ± 0.56
x1 = 0.8876 | 958.8 ± 4.1 | 1291.9 ± 2.7 | 15.68 ± 0.67
x1 = 0.9427 | 960.1 ± 4.1 | 1292.5 ± 2.7 | 17.43 ± 0.75
x1 = 1 | 961.3 ± 4.1 | 1293 ± 2.8 | 19.29 ± 0.83

CCCCC(CC)COP(=O)(O)OCC(CC)CCCC (configuration not stated) [bis(2-ethylhexyl) hydrogen phosphate] + Clc1ccccc1
[2]
Details | mass density [kg/m3] | speed of sound [m/s] | viscosity [mPa·s]
x1 = 0.0568 | 1075.2 ± 4 | 1253.2 ± 2.2 | 0.917 ± 0.038
x1 = 0.1474 | 1051.9 ± 4 | 1255.5 ± 2.2 | 1.535 ± 0.063
x1 = 0.2143 | 1038.4 ± 4.1 | 1257.7 ± 2.2 | 1.859 ± 0.076
x1 = 0.3498 | 1017.9 ± 4.1 | 1262.8 ± 2.3 | 2.804 ± 0.12
x1 = 0.4357 | 1007.6 ± 4.1 | 1266.4 ± 2.4 | 3.777 ± 0.16
x1 = 0.4788 | 1002.9 ± 4.1 | 1268.4 ± 2.4 | 4.502 ± 0.19
x1 = 0.5322 | 997.1 ± 4.1 | 1270.8 ± 2.4 | 5.526 ± 0.23
x1 = 0.6285 | 987.8 ± 4.1 | 1275.4 ± 2.5 | 7.879 ± 0.33
x1 = 0.7146 | 980.4 ± 4.1 | 1279.5 ± 2.6 | 10.49 ± 0.44
x1 = 0.7704 | 975.8 ± 4.1 | 1282.2 ± 2.6 | 12.21 ± 0.52
x1 = 0.8433 | 970.4 ± 4.1 | 1285.7 ± 2.6 | 14.56 ± 0.62
x1 = 0.8789 | 968 ± 4.1 | 1287.3 ± 2.7 | 15.86 ± 0.68
x1 = 0.9501 | 963.8 ± 4.1 | 1290.8 ± 2.7 | 17.84 ± 0.77
x1 = 1 | 961.3 ± 4.1 | 1293 ± 2.8 | 19.29 ± 0.83

CCCCC(CC)COP(=O)(O)OCC(CC)CCCC (configuration not stated) [bis(2-ethylhexyl) hydrogen phosphate] + O=[N+]([O-])c1ccccc1
[2]
Details | mass density [kg/m3] | speed of sound [m/s] | viscosity [mPa·s]
x1 = 0.0912 | 1139 ± 4.1 | 1429.5 ± 2.2 | 2.409 ± 0.099
x1 = 0.1743 | 1104.1 ± 4.1 | 1415.6 ± 2.3 | 2.925 ± 0.12
x1 = 0.2624 | 1075.4 ± 4.1 | 1401.5 ± 2.3 | 3.319 ± 0.14
x1 = 0.3698 | 1048.6 ± 4.1 | 1385.2 ± 2.4 | 4.274 ± 0.18
x1 = 0.4211 | 1038.1 ± 4.1 | 1377.5 ± 2.4 | 4.689 ± 0.19
x1 = 0.4779 | 1027.1 ± 4.1 | 1369.1 ± 2.4 | 5.585 ± 0.23
x1 = 0.5326 | 1017.4 ± 4.1 | 1361.1 ± 2.5 | 6.687 ± 0.28
x1 = 0.6102 | 1004.6 ± 4.1 | 1349.8 ± 2.5 | 8.662 ± 0.36
x1 = 0.6933 | 992.8 ± 4.1 | 1337.6 ± 2.6 | 10.95 ± 0.46
x1 = 0.7299 | 988.1 ± 4.1 | 1332.2 ± 2.6 | 11.91 ± 0.5
x1 = 0.7867 | 981.4 ± 4.1 | 1323.9 ± 2.6 | 13.51 ± 0.57
x1 = 0.8598 | 973.6 ± 4.1 | 1313.2 ± 2.7 | 15.51 ± 0.66
x1 = 0.9387 | 966.2 ± 4.1 | 1301.9 ± 2.7 | 17.75 ± 0.76
x1 = 1 | 961.3 ± 4.1 | 1293 ± 2.8 | 19.29 ± 0.83

Clc1ccccc1 [chlorobenzene]
[1]
Details | mass density [kg/m3] | speed of sound [m/s] | viscosity [mPa·s]
– | 1095.2 ± 4 | 1251.8 ± 2.1 | 0.724 ± 0.03

Clc1ccccc1 [chlorobenzene] + CCCCC(CC)COP(=O)(O)OCC(CC)CCCC
[2], x2 = 0
Details | mass density [kg/m3] | speed of sound [m/s] | viscosity [mPa·s]
– | 1095.2 ± 4 | 1251.8 ± 2.1 | 0.724 ± 0.03

O=[N+]([O-])c1ccccc1 [nitrobenzene]
[1]
Details | mass density [kg/m3] | speed of sound [m/s] | viscosity [mPa·s]
– | 1193.6 ± 4.1 | 1445.6 ± 2.2 | 1.611 ± 0.066

O=[N+]([O-])c1ccccc1 [nitrobenzene] + CCCCC(CC)COP(=O)(O)OCC(CC)CCCC
[2], x2 = 0
Details | mass density [kg/m3] | speed of sound [m/s] | viscosity [mPa·s]
– | 1193.6 ± 4.1 | 1445.6 ± 2.2 | 1.611 ± 0.066

Cc1ccccc1 [toluene]
[1]
Details | mass density [kg/m3] | speed of sound [m/s] | viscosity [mPa·s]
– | 856.2 ± 4 | 1282.6 ± 2.1 | 0.528 ± 0.022

Cc1ccccc1 [toluene] + CCCCC(CC)COP(=O)(O)OCC(CC)CCCC
[2], x2 = 0
Details | mass density [kg/m3] | speed of sound [m/s] | viscosity [mPa·s]
– | 856.2 ± 4 | 1282.6 ± 2.1 | 0.528 ± 0.022
